Consider ten molecules from PubChem BioAssay (NCI).

Where “and” joins values, the source holds several entries; their conditions need not be identical. Equal entries are not always repeated.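 Assay format: 96-well plates, 48-hour exposure. GI50 = concentration required for 50% inhibition of growth. TGI: concentration producing complete growth inhibition.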

Some test systems named below: RXF 393 renal; SK-MEL-5 melanoma; UO-31 renal; DU-145 prostate; A549 NSCLC; SN12C renal; ACHN renal; A498 renal; KM20L2 colon; SNB-78 CNS.
Common to all, as to experiment: DTP human tumour cell line panel, 48 h

Broadly, the GI50 is the concentration that inhibits growth by half. What is called TGI is the concentration giving total growth inhibition. A low value points to more potent growth arrest. On to `CNC(=O)c1ncccc1Nc1nc(Nc2cc3c(cc2OC)CCCN3C(=O)CN(C)C)nc2[nH]ccc12`, for which the GI50 with RXF 393 renal was 0.974 µM; in the experiment on SK-MEL-5 melanoma, 0.618 µM; in the experiment on UO-31 renal, 2.71 µM; in the experiment on DU-145 prostate, 0.753 µM; with A549 NSCLC, 0.845 µM; in the experiment on SN12C renal, 3.36 µM. Also, the GI50 in the experiment on ACHN renal was 3.23 µM; in the experiment with A498 renal, 1.18 µM. In addition, the concentration for total growth inhibition (TGI) was 3.8 µM in the experiment with RXF 393 renal; 3.37 µM with SK-MEL-5 melanoma; 6.45 µM with UO-31 renal; 3.02 µM with DU-145 prostate; 4.39 µM with A549 NSCLC; 7.37 µM with SN12C renal. For the same molecule, the TGI was 6.72 µM in the experiment with ACHN renal and 5.46 µM in the experiment on A498 renal.

`N#CC1(c2ccc(NC(=O)c3cccnc3NCc3ccncc3)cc2)CCCC1`: the GI50 was 2.81 µM with RXF 393 renal; 4.96 µM with SK-MEL-5 melanoma; 12.6 µM in the experiment on UO-31 renal; 18.8 µM with DU-145 prostate; 17.3 µM in the experiment with A549 NSCLC; 18 µM in the experiment with SN12C renal. Besides, the figures for the GI50 in the experiment with ACHN renal and in the experiment on A498 renal were 12.4 µM and 10.2 µM, respectively. Besides, the TGI with RXF 393 renal is 12.3 µM; with SK-MEL-5 melanoma, 18 µM; in the experiment on UO-31 renal, 60.7 µM; in the experiment with DU-145 prostate, greater than 100 µM; with A549 NSCLC it was greater than 79.7 µM; in the experiment on SN12C renal it was greater than 100 µM. The TGI with ACHN renal was greater than 70.9 µM; with A498 renal it was 60.9 µM.

In the case of `Cc1nn(-c2ccc(Cl)cc2)c2ncnc(N/N=C/c3ccccc3O)c12`, the GI50 is 1.97 µM and 0.683 µM in the experiment on RXF 393 renal; 0.728 µM and 0.509 µM in the experiment with SK-MEL-5 melanoma; 0.331 µM and 0.251 µM with UO-31 renal; 0.488 µM and 0.472 µM in the experiment with DU-145 prostate; 1.77 µM and 0.699 µM in the experiment on A549 NSCLC; 0.804 µM and 0.473 µM in the experiment with SN12C renal. Further, the GI50 with ACHN renal was 0.362 µM and 0.322 µM; with A498 renal, 12.3 µM and 3.23 µM. The TGI with RXF 393 renal is 21.7 µM and 11.3 µM; in the experiment with SK-MEL-5 melanoma it was 2.45 µM and 1.47 µM; with UO-31 renal, 3.01 µM and 3.35 µM; in the experiment with DU-145 prostate it was 16.4 µM and > 100 µM; in the experiment with A549 NSCLC, 17.2 µM and 16 µM; with SN12C renal it was greater than 91.7 µM. Moreover, the TGI in the experiment on ACHN renal was 12 µM and 10.5 µM; in the experiment with A498 renal, 70.1 µM and 23.5 µM.

Consider `O=C(/C=C/C12c3ccccc3C(c3ccccc31)C1C(=O)NC(=O)C12)c1ccccn1` (stereo not given), for which the GI50 in the experiment with RXF 393 renal was 1.61 µM; in the experiment on SK-MEL-5 melanoma, 1.7 µM; in the experiment on UO-31 renal it was 1.32 µM; in the experiment with DU-145 prostate it was 1.02 µM; in the experiment with A549 NSCLC it was 2.34 µM; with SN12C renal, 1.48 µM. For the same molecule, the GI50 was 2.88 µM in the experiment on ACHN renal and 1.66 µM in the experiment with A498 renal. The concentration for total growth inhibition (TGI) was 3.12 µM with RXF 393 renal; 3.2 µM in the experiment on SK-MEL-5 melanoma; 2.74 µM in the experiment with UO-31 renal; 2.21 µM in the experiment on DU-145 prostate; 6.86 µM in the experiment with A549 NSCLC; 3.44 µM in the experiment with SN12C renal. For the same molecule, the TGI is 10.3 µM with ACHN renal and 3.15 µM in the experiment with A498 renal.

Consider `O=C1C=C[C@H](O)[C@@]2(CO)O[C@@H]12`, for which the GI50 is 4.96 µM with RXF 393 renal; 16.1 µM with SK-MEL-5 melanoma; 10.4 µM with UO-31 renal; 14.3 µM with DU-145 prostate; 23.7 µM with A549 NSCLC; 8.53 µM in the experiment on SN12C renal. The GI50 with ACHN renal was 9.42 µM; in the experiment with A498 renal, 18.4 µM. In addition, the TGI was 12 µM in the experiment with RXF 393 renal; 29.7 µM in the experiment with SK-MEL-5 melanoma; 24 µM with UO-31 renal; 27.4 µM with DU-145 prostate; greater than 60.1 µM with A549 NSCLC; 22.4 µM in the experiment on SN12C renal. Also, the TGI in the experiment with ACHN renal was found to be 22 µM; in the experiment on A498 renal it was 45.4 µM.

As for `c1ccc(-c2[nH]ncc2-c2ccnc(-c3ccc(OCCn4ccnc4)cc3)c2)nc1`, the GI50 is greater than 25 µM in the experiment on RXF 393 renal; 8.1 µM with SK-MEL-5 melanoma; 6.57 µM with UO-31 renal; greater than 25 µM in the experiment on DU-145 prostate; greater than 25 µM in the experiment on A549 NSCLC; greater than 25 µM in the experiment with SN12C renal. Also, the GI50 in the experiment on ACHN renal and in the experiment with A498 renal was greater than 25 µM throughout. Also, the TGI in the experiment with RXF 393 renal, in the experiment with SK-MEL-5 melanoma, in the experiment with UO-31 renal, with DU-145 prostate, with A549 NSCLC and in the experiment on SN12C renal was greater than 25 µM each time. The TGI with ACHN renal and with A498 renal was greater than 25 µM each time.

For the molecule `COc1cc(Nc2cnc3ccc(C(F)(F)F)cc3n2)cc(OC)c1OC`, the TGI with KM20L2 colon is 22.5 µM; in the experiment with RXF 393 renal, greater than 100 µM; in the experiment on UO-31 renal, greater than 100 µM; with A549 NSCLC, greater than 100 µM; in the experiment on SN12C renal it was greater than 100 µM; in the experiment on SNB-78 CNS, greater than 100 µM. This molecule also registered a TGI in the experiment on ACHN renal greater than 100 µM.

As for `Cc1ccc(O)cc1Nc1ccnc2ccc(S(C)(=O)=O)cc12`, the GI50 in the experiment on RXF 393 renal was 0.381 µM; in the experiment on SK-MEL-5 melanoma, 10.4 µM; in the experiment on UO-31 renal, 0.496 µM; in the experiment on DU-145 prostate it was 7.23 µM; in the experiment with A549 NSCLC, 2.76 µM; with SN12C renal it was 2.82 µM. The results for the GI50 in the experiment with ACHN renal and with A498 renal were 0.612 µM and 1.75 µM, respectively. Further, the total growth inhibition concentration (TGI) in the experiment on RXF 393 renal is 1.99 µM; in the experiment on SK-MEL-5 melanoma, greater than 25 µM; with UO-31 renal, 4.81 µM; in the experiment on DU-145 prostate it was greater than 20.4 µM; in the experiment with A549 NSCLC it was greater than 25 µM; with SN12C renal, greater than 25 µM. Further, the TGI stood at 7.75 µM in the experiment with ACHN renal and 6.18 µM in the experiment with A498 renal.

In the case of `Cc1cc(O)c2c(c1)C(=O)C=CC2=O`, the TGI in the experiment on RXF 393 renal was 9.57 µM and 9.17 µM; in the experiment on SK-MEL-5 melanoma, 22.4 µM and 6.77 µM; in the experiment on UO-31 renal, 11.4 µM and 16.2 µM; in the experiment on DU-145 prostate, 30.8 µM and 46.7 µM; in the experiment on A549 NSCLC, 58 µM and 42.9 µM; in the experiment on SN12C renal it was 21.9 µM and 28.6 µM. The TGI in the experiment on ACHN renal was 8.57 µM and 15.6 µM; in the experiment on A498 renal, 40.7 µM and 75.2 µM. Further, the GI50 in the experiment on SK-MEL-5 melanoma was 7.53 µM and 2.27 µM; with ACHN renal it was 4.43 µM and 4 µM.

On to `COc1cc2c(N3CCN(C(=O)Nc4ccc(OC(C)C)cc4)CC3)ncnc2cc1OCCCN1CCCCC1`, for which the GI50 is 8.61 µM with RXF 393 renal; 13.2 µM in the experiment on SK-MEL-5 melanoma; 15.2 µM with UO-31 renal; 22 µM in the experiment with DU-145 prostate; 17.1 µM with A549 NSCLC; 14.9 µM in the experiment on SN12C renal. Also, the GI50 in the experiment with ACHN renal was 20.8 µM; with A498 renal, 15 µM. Besides, the TGI in the experiment on RXF 393 renal was 23.6 µM; in the experiment with SK-MEL-5 melanoma, 26 µM; with UO-31 renal, 40.7 µM; with DU-145 prostate, greater than 85.3 µM; in the experiment with A549 NSCLC, greater than 93.7 µM; in the experiment with SN12C renal, 88 µM. Further, the figures for the TGI with ACHN renal and in the experiment with A498 renal were 55.6 µM and 40.7 µM, respectively.
